The text below walks through data of US9307767B2, “Herbicidally and insecticidally active thiazolopyridinones” (BAYER INTELLECTUAL PROPERTY GMBH, priority 2012, dated 2016).

Values joined by “and” are separate entries in the source; they are usually repeats but may differ in a detail not shown here. Identical values can stand only once.

What all share (assay type): in vivo
In data set [1] the test system is Lolium multiflorum. Briefly: Pre-emergence herbicidal action against weed plants. The note with it: application rate 1280 g/ha, visual assessment after 3 weeks. An excerpt: (§1) Seeds of monocotyledonous and dicotyledonous weed plants and crop plants are placed in wood-fiber pots in sandy loam and covered with soil. The compounds according to the invention, formulated in the form of wettable powders (WP) or as emulsion concentrates (EC), are then applied as aqueous suspension or emulsion at a water application rate of 600 to 800 l/ha (converted) with the addition of 0.2% of wetting agent to the surface of the covering soil. After the treatment, the pots are placed in a greenhouse and kept under good growth conditions for the test plants. The damage to the test plants is assessed visually after a test period of 3 weeks by comparison with untreated controls (herbicidal activity in percent (%): 100% action=the plants have died, 0% action=like control plants). […] The compounds Nos. I-a-38 and I-a-39 each show, at an application rate of 1280 g/ha, an of at least 80% against Echinochloa crus galli and Veronica persica and at the same time no damage in corn and oilseed rape.

The subject of a further data set is Setaria viridis. Described as above. The note with it: application rate 1280 g/ha, visual assessment after 3 weeks.
Description: as §1

Data set [2] deals with wheat. The data set is described as follows: Pre-emergence test, damage to crop plants. The note with it: application rate 1280 g/ha, after 3 weeks.
Description: as §1

Data set [3] deals with corn. Briefly: Post-emergence test, damage to crop plants. Conditions: after about 3 weeks. The procedure: (§2) Seeds of monocotyledonous and dicotyledonous weed and crop plants are placed in sandy loam in wood-fiber pots, covered with soil and cultivated in a greenhouse under good growth conditions. 2 to 3 weeks after sowing, the test plants are treated at the one-leaf stage. The compounds according to the invention, formulated in the form of wettable powders (WP) or as emulsion concentrates (EC), are then sprayed as aqueous suspension or emulsion at a water application rate of 600 to 800 l/ha (converted) with the addition of 0.2% of wetting agent onto the green parts of the plants. After the test plants have been left to stand in the greenhouse under optimal growth conditions for about 3 weeks, the action of the formulations is assessed visually in comparison to untreated controls (herbicidal action in percent (%): 100% activity=the plants have died, 0% activity=like control plants). Here, the compounds Nos. I-a-39 and I-a-42, for example, show, at an application rate of 320 g/ha, an activity of at least 80% against Setaria viridis and at the same time no damage in corn and oilseed rape.

In data set [4] the test system is oilseed rape. The data set is described as follows: Post-emergence test, damage to crop plants. The note with it: application rate 320 g/ha, after about 3 weeks. The procedure: as §2
Data set [5] relates to rice. Briefly: Post-emergence test, damage to crop plants. Conditions: after about 3 weeks. The method, then: as §2
Data set [6] has as its system wheat. The data set is described as follows: Post-emergence test, damage to crop plants. Conditions: application rate 80 g/ha, after about 3 weeks. The method, then:
as §2

The next data set has as its system Alopecurus myosuroides. The data set is described as follows: Pre-emergence herbicidal action against weed plants. The note with it: application rate 1280 g/ha, visual assessment after 3 weeks.
Description: as §1

The test system of the next data set is Cyperus serotinus. The description is as above. The note with it: application rate 1280 g/ha, visual assessment after 3 weeks.
Description: as §1

Data set [7] has as its system rice. Briefly: Pre-emergence test, damage to crop plants. Conditions: application rate 1280 g/ha, after 3 weeks.
Description: as §1

Data set [8] has as its system larvae of the mustard beetle (Phaedon cochleariae). The data set is described as follows: Phaedon test (PHAECO spray treatment). The note with it: application rate 500 g/ha, Chinese cabbage leaf discs sprayed, after 7 days. The procedure:
• Solvent: 78.0 parts by weight of acetone • 1.5 parts by weight of dimethylformamide • Emulsifier: 0.5 part by weight of alkylaryl polyglycol ether
To produce a suitable preparation of active compound, 1 part by weight of active compound is mixed with the stated amounts of solvent and emulsifier, and the concentrate is diluted with emulsifier-containing water to the desired concentration. Discs of Chinese cabbage leaves (Brassica pekinensis) are sprayed with an active compound formulation of the desired concentration and, after drying, populated with larvae of the mustard beetle (Phaedon cochleariae). After 7 days, the activity in % is determined. 100% means that all of the beetle larvae have been killed; 0% means that none of the beetle larvae have been killed. In this test, for example, the following compounds of the Preparation Examples show, at an application rate of 500 g/ha, an activity of 100%: I-a-29, I-a-40.

The test system of a further data set is Polygonum convolvulus. The data set is described as follows: Pre-emergence herbicidal action against weed plants. The note with it: application rate 1280 g/ha, visual assessment after 3 weeks.
Description: as §1

Data set [9] has as its system corn. The data set is described as follows: Pre-emergence test, damage to crop plants. The note with it: application rate 1280 g/ha, after 3 weeks.
Description: as §1

In data set [10] the test system is oilseed rape. The data set is described as follows: Pre-emergence test, damage to crop plants. Conditions: application rate 1280 g/ha, after 3 weeks.
Description: as §1

In data set [11] the test system is greenhouse red spider mite (Tetranychus urticae). Briefly: Tetranychus test, OP-resistant (TETRUR spray treatment). Conditions: application rate 500 g/ha, bean leaf discs sprayed, after 6 days. The procedure:
(§3) • Solvent: 78.0 parts by weight of acetone • 1.5 parts by weight of dimethylformamide • Emulsifier: 0.5 parts by weight of alkylaryl polyglycol ether
To produce a suitable preparation of active compound, 1 part by weight of active compound is mixed with the stated amounts of solvent and emulsifier, and the concentrate is diluted with emulsifier-containing water to the desired concentration. Discs of bean leaves (Phaseolus vulgaris) infested by all stages of the greenhouse red spider mite (Tetranychus urticae) are sprayed with an active compound formulation of the desired concentration. After 6 days, the activity in % is determined. 100% means that all of the spider mites have been killed; 0% means that none of the spider mites have been killed.

The test system of data set [12] is Lolium multiflorum. The data set is described as follows: Post-emergence herbicidal action against weed plants. The note with it: application rate 320 g/ha, visual assessment after about 3 weeks. The procedure:
as §2

Data set [13] deals with caterpillars of the armyworm (Spodoptera frugiperda). The data set is described as follows: Spodoptera frugiperda test (SPODFR spray treatment). Conditions: application rate 500 g/ha, corn leaf disks sprayed, after 7 days. The method, then: as §3
To produce a suitable preparation of active compound, 1 part by weight of active compound is mixed with the stated amounts of solvent and emulsifier, and the concentrate is diluted with emulsifier-containing water to the desired concentration. Disks of corn leaves (Zea mays) are sprayed with an active compound preparation of the desired concentration and, after drying, populated with caterpillars of the armyworm (Spodoptera frugiperda). After 7 days, the activity in % is determined. 100% means that all of the caterpillars have been killed; 0% means that none of the caterpillars have been killed. In this test, for example, the following compounds of the Preparation Examples show, at an application rate of 500 g/ha, an activity of 85%: […], I-a-40. In this test, for example, the following compounds of the Preparation Examples show, at an application rate of 500 g/ha, an activity of 100%: I-a-38, I-a-39.

In the case of “6-(4′-chloro-4-methylbiphenyl-3-yl)-5-oxo-4-(prop-2-yn-1-yl)-4,5-dihydro[1,3]thiazolo[4,5]pyridin-7-yl 2-methylpropanoate [I-a-42]”, the “herbicidal activity against Lolium multiflorum” value with Lolium multiflorum [1] is “at least 80%”. Further, the “herbicidal activity against Setaria viridis” value with Setaria viridis is listed as “at least 80%”. In addition, the damage in wheat entry in the data set on wheat [2] and in the data set on wheat [6] was “no damage” each time. Besides, the damage in corn entry in the data set with corn [3] (application rate 80 g/ha) and in the data set with corn [3] (application rate 320 g/ha) was “no damage” in each case. Besides, in the data set with oilseed rape [4], the “damage in oilseed rape” value was “no damage”. For the same compound, in the data set with rice [5] (application rate 80 g/ha), the damage in rice entry is listed as “no damage”.

Regarding `Cn1c(=O)c(-c2c(F)ccc(-c3ccc(Cl)cc3Cl)c2Cl)c(O)c2scnc21` [I-a-19], in the data set on Alopecurus myosuroides, the “herbicidal activity against Alopecurus myosuroides” value is on record as “at least 80%”. In addition, in the data set on Cyperus serotinus, the “herbicidal activity against Cyperus serotinus” value is recorded as “at least 80%”. Besides, in the data set with rice [7], the damage in rice entry is listed as “no damage”. The damage in wheat entry in the data set with wheat [2] is given as “no damage”.

Take `C#CCn1c(=O)c(-c2c(Cl)cc(-c3ccc(Cl)cc3)cc2CC)c(O)c2scnc21` [I-a-29]: the “activity in % (beetle larvae killed)” value in data set [8] is 100%.

On to `O=c1c(-c2ccc(-c3ccc(Cl)cc3)cc2Cl)c(OCC(F)F)c2scnc2n1CC(F)F` [I-a-32], for which the “herbicidal activity against Polygonum convolvulus” value in the data set with Polygonum convolvulus is “at least 80%”. In addition, the damage in corn entry in the data set on corn [9] is reported as “no damage”. For the same compound, in the data set with oilseed rape [10], the “damage in oilseed rape” value was “no damage”.

Turning to `C#CCn1c(=O)c(-c2cc(-c3ccc(Cl)cc3)ccc2Cl)c(O)c2scnc21` [I-a-37], the “activity in % (spider mites killed)” value in data set [11] is 85% and 90%.

As to `Cc1ccc(-c2ccc(Cl)cc2)cc1-c1c(O)c2scnc2n(C)c1=O` [I-a-38], the damage in corn entry in the data set with corn [9] and with corn [3] (application rate 320 g/ha) was “no damage” in each case. Also, in the data set with oilseed rape [10], the “damage in oilseed rape” value is on record as “no damage”. Also, the “herbicidal activity against Lolium multiflorum” value in the data set with Lolium multiflorum [12] is “at least 80%”. Besides, in the data set on rice [5] (application rate 320 g/ha), the damage in rice entry is listed as “no damage”. Besides, the “activity in % (caterpillars killed)” value in data set [13] was 85% and 100%. In addition, the “activity in % (spider mites killed)” value in data set [11] turned out to be 85%.

Consider `Cc1ccc(-c2ccc(Cl)cc2)cc1-c1c(O)c2scnc2n(CC(F)F)c1=O` [I-a-39], for which the damage in corn entry in the data set with corn [9] and in the data set with corn [3] (application rate 320 g/ha) was “no damage” each time. Besides, the “damage in oilseed rape” value in the data set on oilseed rape [10] and in the data set on oilseed rape [4] was “no damage” in each case. Moreover, the “activity in % (caterpillars killed)” value in data set [13] was 85% and 100%. Further, the “activity in % (spider mites killed)” value in [11] was 85% and 90%.

In the case of `C#CCn1c(=O)c(-c2cc(-c3ccc(Cl)cc3)ccc2C)c(O)c2scnc21` [I-a-40, 6-(4′-chloro-4-methylbiphenyl-3-yl)-7-hydroxy-4-(prop-2-yn-1-yl)[1,3]thiazolo[4,5-b]pyridin-5(4H)-one], the “activity in % (beetle larvae killed)” value in data set [8] came out at 100%. Also, the “activity in % (caterpillars killed)” value in [13] came out at 85%.
